From ChEMBL document CHEMBL1201862, “PubChem BioAssay data set” (2004)
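Values below derive from 48-hour exposures of cells grown in 96-well plates, with endpoints linearly interpolated between the two concentrations bracketing the appropriate inhibition level. At the GI50, growth is halved.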 The source made the active and inactive calls. No stated cut-off is given here; in the data, active = GI50 up to about 1.1 µM and inactive = higher.

Assays:
Assay in all cases: inhibition of tumour cell growth, NCI panel, 48 h
[1] = system: A498
[2] = system: HCT-15
[3] = system: MOLT-4
[4] = system: NCI/ADR-RES
[5] = system: CCRF-CEM
[6] = system: A549
[7] = system: MCF7
[8] = system: UACC-62
[9] = system: MDA-MB-435
[10] = system: COLO 205
[11] = system: SW-620
[12] = system: RXF 393
[13] = system: SR
[14] = system: HCC 2998
[15] = system: SF-539
[16] = system: 786-0
[17] = system: SN12C
[18] = system: MDA-N
[19] = system: SF-295

SMILES | GI50 [1] | GI50 [2] | GI50 [3] | GI50 [4] | GI50 [5] | GI50 [6] | GI50 [7] | GI50 [8] | GI50 [9] | GI50 [10] | GI50 [11] | GI50 [12] | GI50 [13] | GI50 [14] | GI50 [15] | GI50 [16] | GI50 [17] | GI50 [18] | GI50 [19]
C/C(=N\O)C1CC2C=C(C#N)C1N(Cc1ccccc1)C2 (stereo unspecified) | > 100 µM (inactive) | > 100 µM | > 100 µM (inactive) | > 100 µM (inactive) | > 100 µM (inactive) | > 100 µM (inactive) | > 100 µM (inactive) | > 100 µM (inactive) | > 100 µM (inactive) | > 100 µM (inactive) | > 100 µM (inactive) | > 100 µM (inactive) | > 100 µM (inactive) | 80.5 µM (inactive) | > 100 µM (inactive) | > 100 µM (inactive) | > 100 µM (inactive) | > 100 µM (inactive) | > 100 µM (inactive)
O=C(NN1C(=O)/C(=C/c2ccc(Cl)cc2)N=C1c1ccccc1)c1c(Cl)c(Cl)c(Cl)c(Cl)c1-c1nc2ccccc2[nH]1 | 12.9 µM (inactive) | 9.62 µM | 6.93 µM (inactive) | 15.3 µM (inactive) | 12.1 µM (inactive) | 5.98 µM (inactive) | 9.91 µM (inactive) | 10.7 µM (inactive) | 2.8 µM (inactive) | 22.6 µM (inactive) | 20.6 µM (inactive) |  | 3.58 µM (inactive) | 8.09 µM (inactive) | 23.8 µM (inactive) | 18.5 µM (inactive) | 24.1 µM (inactive) | 3.84 µM (inactive) | < 0.01 µM (active)
Cc1ccc2nc(-c3ccc(-c4nc5ccc(C)cc5o4)c(O)c3)oc2c1 | > 100 µM (inactive) | > 100 µM | > 100 µM (inactive) | > 100 µM (inactive) | > 100 µM (inactive) | > 100 µM (inactive) | > 100 µM (inactive) | > 100 µM (inactive) | > 100 µM (inactive) | > 100 µM (inactive) | > 100 µM (inactive) |  | > 100 µM (inactive) | > 100 µM (inactive) | > 100 µM (inactive) | > 100 µM (inactive) | > 100 µM (inactive) | > 100 µM (inactive) | 
COC(=O)/C=C/c1ccc2c(c1)CCC2 | 27.2 µM (inactive) | 17.3 µM | 41.9 µM (inactive) | 24.5 µM (inactive) | 46.9 µM (inactive) | 46.1 µM (inactive) | 52.5 µM (inactive) |  | 63.1 µM (inactive) |  | 5.13 µM (inactive) | 21 µM (inactive) | 36.7 µM (inactive) | > 100 µM (inactive) | 72.8 µM (inactive) | 39.4 µM (inactive) |  | > 100 µM (inactive) | 56 µM (inactive)
COC(=O)CCCC1(CCCC(=O)OC)CCCCCCCCC(CCCC(=O)OC)(CCCC(=O)OC)C(=O)C1=O | > 100 µM (inactive) | > 100 µM |  | 40.2 µM (inactive) |  | 11.6 µM (inactive) | 85.5 µM (inactive) | 13.6 µM (inactive) | 86.1 µM (inactive) | > 100 µM (inactive) | > 100 µM (inactive) | 1.6 µM (inactive) | 20.4 µM (inactive) | > 100 µM (inactive) | 25.2 µM (inactive) | 17.1 µM (inactive) | > 100 µM (inactive) | > 100 µM (inactive) | > 100 µM (inactive)
c1ccc2c(c1)Nc1nc3nonc3nc1N2 | > 100 µM (inactive) | 29.4 µM | > 100 µM (inactive) | > 100 µM (inactive) | > 100 µM (inactive) | > 100 µM (inactive) | > 100 µM (inactive) | > 100 µM (inactive) | > 100 µM (inactive) | > 100 µM (inactive) | > 100 µM (inactive) | > 100 µM (inactive) | > 100 µM (inactive) | > 100 µM (inactive) |  | > 100 µM (inactive) | > 100 µM (inactive) | > 100 µM (inactive) | > 100 µM (inactive)
CCN(CC)C(=O)N[C@@H](CC(C)C)C(=O)NC | > 100 µM (inactive) | > 100 µM | > 100 µM (inactive) | > 100 µM (inactive) | > 100 µM (inactive) | > 100 µM (inactive) | 49.4 µM (inactive) | > 100 µM (inactive) | > 100 µM (inactive) | > 100 µM (inactive) | > 100 µM (inactive) | > 100 µM (inactive) | > 100 µM (inactive) | > 100 µM (inactive) |  | > 100 µM (inactive) | > 100 µM (inactive) | > 100 µM (inactive) | > 100 µM (inactive)
N#Cc1c(N)[nH]c(=S)c(C#N)c1-c1cccc(Cl)c1 | 30.1 µM (inactive) | 41.1 µM | 18.4 µM (inactive) | 67.1 µM (inactive) |  | 63.7 µM (inactive) | 32.3 µM (inactive) | 29.6 µM (inactive) | 21.4 µM (inactive) | 15.2 µM (inactive) | 24.4 µM (inactive) | 22.4 µM (inactive) | 18.6 µM (inactive) | 15.6 µM (inactive) | 49.2 µM (inactive) | 18.6 µM (inactive) | 20.4 µM (inactive) | 18.2 µM (inactive) | 34.9 µM (inactive)
O=C(NN=C(c1ccccc1)c1ccccc1)/C(O)=C/C(=O)c1ccc(Cl)cc1 | 16.5 µM (inactive) | 24.7 µM | 35 µM (inactive) | 20.7 µM (inactive) | 24.4 µM (inactive) | 27.7 µM (inactive) | 28 µM (inactive) | 39.1 µM (inactive) | 69.3 µM (inactive) | 19.9 µM (inactive) |  | 35.2 µM (inactive) | 39.2 µM (inactive) | 39.5 µM (inactive) | 26.4 µM (inactive) | 37.3 µM (inactive) | 27.9 µM (inactive) | 40.5 µM (inactive) | 34.7 µM (inactive)
Cc1ccc(Nc2ncnc3sc(SCc4ccccc4)nc23)cc1 | 8.81 µM (inactive) | 57.7 µM | > 100 µM (inactive) | > 100 µM (inactive) | > 100 µM (inactive) | 88.9 µM (inactive) | > 100 µM (inactive) |  | > 100 µM (inactive) | > 100 µM (inactive) | > 100 µM (inactive) | 84.9 µM (inactive) | > 100 µM (inactive) | 33.7 µM (inactive) | > 100 µM (inactive) | > 100 µM (inactive) | > 100 µM (inactive) | > 100 µM (inactive) | 74.8 µM (inactive)
S=c1[nH]nc(Cn2c3ccc(Br)cc3c3nc4ccccc4nc32)n1C1CCCCC1 | 20.5 µM (inactive) | 22 µM |  | 27 µM (inactive) | 25.6 µM (inactive) | 21.2 µM (inactive) | 16.7 µM (inactive) | 16.1 µM (inactive) | 20.3 µM (inactive) |  | 25.3 µM (inactive) | 18.5 µM (inactive) | 8.13 µM (inactive) | 16.1 µM (inactive) | 18.6 µM (inactive) | 20.7 µM (inactive) | 25 µM (inactive) | 37.5 µM (inactive) | 16.7 µM (inactive)
CCOP(=O)(C=C=C(C)C)OCC | > 100 µM (inactive) | > 100 µM |  | > 100 µM (inactive) |  | > 100 µM (inactive) | > 100 µM (inactive) | > 100 µM (inactive) | > 100 µM (inactive) | > 100 µM (inactive) | > 100 µM (inactive) | > 100 µM (inactive) | > 100 µM (inactive) | > 100 µM (inactive) | > 100 µM (inactive) | > 100 µM (inactive) | > 100 µM (inactive) | > 100 µM (inactive) | > 100 µM (inactive)
